Laboratory results reported in PMC12723162, “Alphaherpesvirus pUL21 homologs use non-canonical sequences to compete with cellular adaptors for protein phosphatase 1 binding” (The Journal of Biological Chemistry, 2025).

Tests used:
[1] = target: T1, PP1γ catalytic domain : GADD34 peptide pre-formed complex (Mus musculus, UniProt P63087); test: Competition fluorescence anisotropy, displacement of FITC-GADD34 peptide from PP1γ (HEPES pH 8.0); assay type: binding; settings: 2 nM fluorescent GADD34 peptide + 250 nM PP1γ; competitor at over 1000-fold molar excess; HEPES pH 8.0, 500 mM NaCl, 0.05% TWEEN-20; 27 °C
T1 construct: mouse PP1γ catalytic domain (residues 7–300)-H6; His6 (C); made in house; host or cells: E. coli T7 Express lysY/Iq (PP1γ); tracer peptide synthesised by GenScript
T1 sequence (P63087 7-300, one chain of several): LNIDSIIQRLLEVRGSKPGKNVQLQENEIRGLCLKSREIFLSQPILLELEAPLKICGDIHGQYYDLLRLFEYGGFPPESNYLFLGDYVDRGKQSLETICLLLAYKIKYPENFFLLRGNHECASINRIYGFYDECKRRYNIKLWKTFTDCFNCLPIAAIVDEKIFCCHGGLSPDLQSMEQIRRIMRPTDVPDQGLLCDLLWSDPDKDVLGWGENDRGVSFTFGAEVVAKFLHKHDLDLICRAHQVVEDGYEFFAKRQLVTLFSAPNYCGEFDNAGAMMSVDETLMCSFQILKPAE
From the text: (§1) Bacterial expression plasmids encoding the mouse PP1γ catalytic domain (residues 7–300)-H6 and pUL21-H6, and mammalian expression vectors encoding pUL21(FV242AA)-GFP, pORF38-GFP and pORF38(FV255AA)-GFP, were described previously ([23]). We note that the mouse and human PP1γ catalytic domains share 100% amino acid identity. pORF38-NLT-H6 was generated by sub-cloning residues 1 to 263 of ORF38 into the vector pOPTnH ([52]). pUL21-RVxF-H6 was generated by inserting the mutations A237V and V239F into pUL21-H6 by QuikChange site-directed mutagenesis. Human PP1α was cloned from HeLa cell cDNA into a vector derived from pF5K (Promega) with an N-terminal Myc epitope tag via restriction-based cloning, and point mutations were introduced into Myc-PP1α by QuikChange mutagenesis. A plasmid encoding pUL21-GFP was generated by sub-cloning a codon-optimized synthetic UL21 gene (GeneArt) into pEGFP-N1 (Clontech), yielding an identical pUL21-GFP amino acid sequence as used in ([23]). pUL21-ΔL, -ΔR and -ΔLR were generated from this vector via inverse PCR, and point mutations were introduced via QuikChange mutagenesis.
Peptides were commercially synthesised to >95% purity (GenScript) as follows: GADD34 RVxF+ϕϕ[xF] […]
Proteins were expressed using E. coli T7 Express lysY/I^q cells (New England Biolabs) grown in 2 × TY medium at 37 °C to OD600 0.8 to 1.2 before cooling to 22 °C and induction of protein expression using 0.4 mM IPTG. […] Fractions were analysed by SDS-PAGE and those containing the desired protein were pooled, concentrated using centrifugal concentrators (Millipore) and stored at 4 °C (short-term) or snap-frozen in liquid nitrogen for long-term storage at −70 °C.
Fluorescence anisotropy was measured using a SpectraMax i3 microplate reader (Molecular Devices) with wavelengths 485 ± 20 nm (excitation) and 535 ± 25 nm (emission). Samples (100 μl per well) were dispensed into low-bind black half-area 96-well microtitre plates (Corning) and fluorescence anisotropy was recorded at 27 °C. […]

[2] = target: T2, PP1γ catalytic domain (7–300), C-terminally His6-tagged (Mus musculus, UniProt P63087); test: Isothermal titration calorimetry (ITC); assay type: binding; parameters: key to KD / ∆H / ∆G / -T∆S / N (sites): –: no binding detected; settings: for -T∆S / N (sites) / ∆G / ∆H / KD: TROPPO peptides; for KD: HEPES pH 8.0, 25 °C
T2 construct: mouse PP1γ catalytic domain (residues 7–300)-H6; made in house; host or cells: E. coli T7 Express lysY/Iq
T2 sequence (P63087 7-300): as the sequence (P63087 7-300, one chain of several) above
From the text: as §1
Proteins were expressed using E. coli T7 Express lysY/I^q cells (New England Biolabs) grown in 2 × TY medium at 37 °C to OD600 0.8 to 1.2 before cooling to 22 °C and induction of protein expression using 0.4 mM IPTG. Cells were harvested at 16 to 20 h post-induction and pellets stored at −70 °C until required. Cells were resuspended in chilled lysis buffer (20 mM Tris pH 7.5, 20 mM imidazole, 500 mM NaCl, 1.4 mM β-mercaptoethanol 0.5 mM MgCl2 and 0.05% TWEEN-20 [plus 1 mM MnCl2 for PP1]) that was supplemented with 200 μl EDTA-free protease inhibitor cocktail (Merck) and 400 U bovine DNase I (Merck). Cells were lysed using a TS series cell disruptor (Constant Systems) at 24 kpsi and lysates were clarified (40,000×g, 30 min, 4 °C) before incubation with Ni-NTA agarose (Qiagen) for 1 h at 4 °C. The resin was washed with ≥20 column volumes of wash buffer (20 mM Tris, 20 mM imidazole and 500 mM NaCl [plus 1 mM MnCl2 for PP1]) at pH 7.5 (PP1γ and pORF38-NLT) or pH 8.5 (pUL21 and pUL21-RVxF). Protein was eluted using wash buffer supplemented with additional imidazole (final concentration 250 mM) and proteins were subjected to size-exclusions chromatography using HiLoad 16/600 Superdex 75 (PP1) or Superdex 200 (other) columns equilibrated in 20 mM Tris pH 8.5, 500 mM NaCl, 1 mM DTT (for pUL21 and pUL21-RVxF) or 50 mM HEPES pH 8.0, 500 mM NaCl, 0.5 mM TCEP (for PP1 and pORF38-NLT). Fractions were analysed by SDS-PAGE and those containing the desired protein were pooled, concentrated using centrifugal concentrators (Millipore) and stored at 4 °C (short-term) or snap-frozen in liquid nitrogen for long-term storage at −70 °C.
ITC experiments were performed using a MicroCal PEAQ-ITC automated calorimeter (Malvern Panalytical). The solvent (ITC buffer) was 50 mM HEPES pH 8.0, 500 mM NaCl, 0.5 mM TCEP. Lyophilized peptides were dissolved into ITC buffer and their concentration was estimated from dry mass. Proteins were diluted in ITC buffer, and their concentration was estimated from the theoretical extinction coefficient at 280 nm ([53]). […] Data were analyzed using MicroCal PEAQ-ITC analysis software (Malvern Panalytical) and fitted using a one-site binding model.
Table S1. Isothermal titration calorimetry (ITC) of PP1 with TROPPO-containing peptides and proteins. Data for independent experiments are shown. For all, the cell contained C-terminally His6-tagged mouse PP1γ (7–300). –, no binding detected.

pUL21-GFP = test: Co-IP of Myc-PP1 with pUL21-GFP; assay type: binding, HSV-1; settings: for Co-IP of Myc-PP1 by pUL21-GFP: HEK 293T cells co-transfected, 24 h, immunoblot, versus WT Myc-PP1; for Abundance of Myc-PP1 in cell lysates: HEK 293T lysates used for IP; for Abundance of Myc-PP1 in cell lysates / Bound:input ratio of Myc-PP1 (effect of mutation): versus WT; for Bound:input ratio of Myc-PP1 (effect of mutation): densitometry, HEK 293T, ∗∗∗p < 0.001
From the text: as §1
(§2) Mycoplasma-free human embryonic kidney 293T (HEK 293T) cells (American Type Culture Collection #CRL-3216) were maintained in Dulbecco’s modified Eagle’s medium (DMEM) with high glucose (Merck), supplemented with 10% (v/v) heat-inactivated fetal calf serum and 2 mM L-glutamine (complete DMEM) in a humidified 5% CO2 atmosphere at 37 °C. The identity of the cell line was not independently confirmed.
(§3) Monolayers of HEK 293T cells were transfected with 7.7 μg of DNA per 9 cm dish, using 18 μg/ml 25 kDa branched polyethylenimine (Merck) or using TransIt-LT1 (Mirus) in accordance with the manufacturer’s instructions. Cells were harvested 24 h post-transfection and incubated for 30 min in ice-cold 10 mM Tris pH 7.5, 150 mM NaCl, 0.5 mM EDTA, 0.5% Igepal CA-630 (a.k.a. NP-40), 1% (v/v) EDTA-free protease inhibitor cocktail (Merck) before clarification at 21,000×g for 10 min at 4 °C. Lysate protein concentrations were measured using the bicinchoninic acid (BCA) assay (Pierce) and normalized before affinity capture using GFP-Trap resin (ChromoTek) following the manufacturer’s protocol. Samples were eluted by heating the resin to 95 °C for 5 min in 45 μl 2 × SDS-PAGE loading buffer. Proteins were separated by SDS-PAGE and transferred to 0.45 μm nitrocellulose membranes (PerkinElmer or Cytiva). Membranes were stained with Ponceau S and imaged using a G:Box XX9 (Syngene) before blocking in Tris-buffered saline with 0.1% TWEEN-20 (TBS-T) supplemented with 5% (w/v) non-fat milk powder. Immunoblotting was performed using antibodies diluted in blocking buffer as listed below, and immunoblots were imaged using an Odyssey CLx (LI-COR Biosciences). Densitometry was performed using Image Studio Lite version 5.2 (LI-COR Biosciences), and statistical tests were performed using Prism version 7 (GraphPad).
(§4) The following primary antibodies and dilutions were used for immunoblotting: rabbit anti-CERT 1:10,000 (Abcam #Ab72536), mouse anti-PP1α 1:1000 (Santa Cruz #sc-271762), mouse anti-Myc 1:4000 (Millipore #05–724), rat anti-tubulin (clone YL1/2) hybridoma supernatant 1:40 ([54]). The anti-CERT antibody was validated using a knock-out cell line. The anti-PP1α antibody has been validated by siRNA knockdown ([55]). The anti-Myc antibody was validated using control experiments lacking Myc-tagged transfected constructs ([56]). The anti-tubulin antibody has been validated by immunofluorescence microscopy, immuno-electron microscopy and radiolabeled immunosorbent assay ([54]). Secondary antibodies from LI-COR Biosciences were diluted 1:10,000 as follows: IRDye 680RD goat anti-rat (#926–68029) and goat anti-mouse (#926–68020), or IRDye 800CW goat anti-rabbit (#926–32221).

PP1 regulatory protein = settings: cited from earlier work
From the text: HEK 293T cells were co-transfected with pUL21-GFP and WT or mutant Myc-PP1, and lysates were subjected to GFP affinity capture before SDS-PAGE and immunoblott ...

endogenous PP1α = test: GFP affinity capture / co-IP of endogenous PP1α with GFP-tagged bait; assay type: binding, human; settings: HEK 293T cells, 24 h post-transfection, GFP-Trap, immunoblot; representative of two independent experiments
From the text: as §1, §2, §3, §4

[3] = independent experiment 1, syringe/cell µM: pUL21 1000/58.8, pORF38 1000/79.6
[4] = independent experiment 2, syringe/cell µM: pUL21 1000/54.5, pORF38 500/17.0

Molecule: AKRATVSEFVQVKHIDR [pUL21 TROPPO, pUL21 TROPPO peptide (residues 234–250)]
- Displacement of GADD34 peptide from PP1 by TROPPO peptides [1]: Neither TROPPO-containing peptide was able to displace the GADD34 peptide
- ITC heats of TROPPO peptides against PP1 catalytic domain ([2]; 500–1000 μM peptide titrated, 50 mM HEPES pH 8.0, 500 mM NaCl, 0.5 mM TCEP, 25 °C): did not evolve heats above background levels
- -T∆S [2, 3]: –
- N (sites) [2, 3]: –
- ∆G [2, 3]: –
- ∆H [2, 3]: –
- KD [2, 3]: –
- -T∆S [2, 4]: –
- N (sites) [2, 4]: –
- ∆G [2, 4]: –
- ∆H [2, 4]: –
- KD [2, 4]: –

Molecule: C291R
- Co-IP of Myc-PP1 by pUL21-GFP (pUL21-GFP): profoundly less efficient than for WT Myc-PP1
- Abundance of Myc-PP1 in cell lysates (pUL21-GFP): lower abundance of these mutants in the cell lysates
- Bound:input ratio of Myc-PP1 (effect of mutation) (pUL21-GFP): significantly disrupt binding to pUL21-GFP
- PP1 regulatory protein binding (PP1 regulatory protein): severely decrease PP1 regulatory protein binding

Molecule: F257A
- Co-IP of Myc-PP1 by pUL21-GFP (pUL21-GFP): profoundly less efficient than for WT Myc-PP1
- Abundance of Myc-PP1 in cell lysates (pUL21-GFP): lower abundance of these mutants in the cell lysates
- Bound:input ratio of Myc-PP1 (effect of mutation) (pUL21-GFP): significantly disrupt binding to pUL21-GFP
- PP1 regulatory protein binding (PP1 regulatory protein): severely decrease PP1 regulatory protein binding

Molecule: L289R
- Co-IP of Myc-PP1 by pUL21-GFP (pUL21-GFP): profoundly less efficient than for WT Myc-PP1
- Abundance of Myc-PP1 in cell lysates (pUL21-GFP): lower abundance of these mutants in the cell lysates
- Bound:input ratio of Myc-PP1 (effect of mutation) (pUL21-GFP): significantly disrupt binding to pUL21-GFP
- PP1 regulatory protein binding (PP1 regulatory protein): severely decrease PP1 regulatory protein binding

B1: V239F (protein)
chain: MELSYATTMHYRDVVFYVTTDRNRAYFVCGGCVYSVGRPCASQPGEIAKFGLVVRGTGPDDRVVANYVRSELRQRGLQDVRPIGEDEVFLDSVCLLNPNVSSELDVINTNDVEVLDECLAEYCTSLRTSPGVLISGLRVRAQDRIIELFEHPTIVNVSSHFVYTPSPYVFALAQAHLPRLPSSLEALVSGLFDGIPAPRQPLDAHNPRTDVVITGRRAPRPIAGSGAGSGGAGAKRATFSEFVQVKHIDRVGPAGVSPAPPPNNTDSSSLVPGAQDSAPPGPTLRELWWVFYAADRALEEPRADSGLTREEVRAVRGFREQAWKLFGSAGAPRAFIGAALGLSPLQKLAVYYYIIHRERRLSPFPALVRLVGRYTQRHGLYVPRPDDPVLADAINGLFRDALAAGTTAEQLLMFDLLPPKDVPVGSDVQADSTALLRFIESQRLAVPGGVISPEHVAYLGAFLSVLYAGRGRMSAATHTARLTGVTSLVLAVGDVDRLSAFDRGAAGAASRTRAAGYLDVLLTVRLARSQHGQSV
modifications: left off: GFP (from the vector pEGFP-N1), end not stated, kept
- Co-IP of endogenous PP1α (endogenous PP1α): co-precipitated more PP1α than did WT pUL21-GFP
